Laboratory results reported in EP0959987B1, “USE OF PERFLUOROALKYL SUBSTITUTED PHOSPHORUS COMPOUNDS AS LIGANDS FOR HOMOGENEOUS CATALYSIS IN SUPERCRITICAL CARBON DIOXIDE” (Studiengesellschaft Kohle mbH, priority 1997, dated 1998).

Experiments:
[1] = scCO2, T = 50 °C, p = 345 bar; cited from earlier work
[2] = Solubility of the complexes in scCO2 by UV spectroscopy (Lambert-Beer law, reference data for THF solutions); format: physicochemical
Procedure: Die Löslichkeit der Komplexe IXa,b in scCO2 wurde mittels UV-Spektroskopie bestimmt und mit der Löslichkeit der unsubstituierten Stammverbindung [(dppe)Rh(hfacac)] IXe verglichen. IXe ist selbst bei hoher Dichte ρ und damit hoher Lösungskraft des scCO2 (Angew. Chem. 1978, 90, 748) nicht löslich (T = 50 °C, […]). Mit IXa und IXb werden hingegen bereits bei niedrigen Dichten (T= 50 °C, ρ = 90 bar, ρ = 0.55 g cm^-3) gelb-orange Lösungen erhalten. Aus den Absorptionsmaxima der UV-Spektren (siehe Abb. 1) läßt sich über das Lambert-Beer'sche-Gesetz mittels Vergleichsdaten für THF-Lösungen eine Sättigungskonzentration von 6.3 x 10^-5 M für IXa und 7.5 x 10^-5 M für IXb ermitteln. Zum Vergleich ist in Abb. 1 auch das UV-Spektrum des Komplexes IXf mit der Alkylphosphorverbindung 1,2-Bis(dicyclohexylphosphino)ethan (dcpe) aufgeführt. Die Löslichkeit von IXf in scCO2 beträgt unter identischen Bedingungen 1.1 x 10^-5 M, ist also um 5x bzw. 7x geringer als die von IXa und IXb. [formula]

Molecule	maximale Löslichkeit [1]	Löslichkeit in scCO2 [2]
[(Duphos)Rh(η^4-C8H12)]^+	30 µM	
O=C([CH-]C(=O)C(F)(F)F)C(F)(F)F.[Rh+].c1ccc(P(CCP(c2ccccc2)c2ccccc2)c2ccccc2)cc1 [IXe, [(dppe)Rh(hfacac)], reference compound]		nicht löslich
